Measurements taken from paper PMC12040169 (PLOS Biology, 2025).

Test: in vitro
Settings: human, hela cells, % viability

Going from `COc1ccc(-c2ccc(CCC(=O)O)n2-c2ccc(N(C)C)cc2)cc1` [CBK131895] to `CN(C)c1ccc(CCNC(=O)c2cn3ccccc3n2)cc1` [CBK281916], the viability at 28.5 h, 10 µM falls from 110% to 87.4%.

First: CC(C)(C)NS(=O)(=O)c1ccc(NC(=O)NC2CCCCC2)cc1 [CBK267324]
Second: O=C(CCn1cccn1)Nc1ccc(OC2CCCC2)cc1 [CBK281861]
The viability at 28.5 h, 10 µM of the first is higher: 96.7% for the first, 87.1% for the second.

Compared with `O=C(c1cccnc1)C1CCN(C(=O)Cc2cccc(F)c2)CC1` [CBK283506], `CC(=O)c1cccc(NC(=O)CN2CCCC2c2cccs2)c1` (stereo not shown) [CBK305143] is higher in viability at 28.5 h, 10 µM: 101% for the first, 109% for the second.

Compared with `CC1(C)[C@H](Cc2cc(CN3CCOCC3)on2)C[C@@H]1NC(=O)C1CC1` [CBK289246], `O=C(NCCN1CCC(O)(c2cccc(F)c2)CC1)C1CCCC1` [CBK283285] is lower in viability at 28.5 h, 10 µM: 113% for the first, 110% for the second.

Compared with `CCS(=O)(=O)c1ccc2cc(C(=O)O)[nH]c2c1` [CBK286951], `Cc1ccc(S(=O)(=O)N(CC(=O)O)c2ccc(C)c(C)c2)cc1` [CBK263778] is lower in viability at 28.5 h, 10 µM: 101% for the first, 89.6% for the second.

Compared with `O=C(N[C@H]1CO[C@H]2[C@@H]1OC[C@@H]2Nc1nccc(-c2cccc(F)c2)n1)C1CC1` [CBK289535], `OC1CCC(Nc2cncc(-c3cccc(F)c3)n2)CC1` (stereo not shown) [CBK065449] is lower in viability at 28.5 h, 10 µM: 99.2% for the first, 97.8% for the second.

Compared with `CC(C)CS(=O)(=O)Nc1ccc(F)cc1F` [CBK020615], `Cc1cc(NS(=O)(=O)c2csc3ccccc23)n(C)n1` [CBK067251] is lower in viability at 28.5 h, 10 µM: 91.9% for the first, 89.5% for the second.

Going from `Clc1ccc(-n2c(SCc3nc4ccccc4[nH]3)nnc2-c2ccncc2)cc1` [CBK267557] to `O=C(CSc1nnc(-c2ccncc2)[nH]1)c1ccc(O)c(O)c1` [CBK264346], the viability at 28.5 h, 10 µM falls from 100% to 86.6%.

Compared with `COc1cc(C)c(Nc2cc(-c3ccc(F)c(F)c3)ncn2)cc1OC` [CBK090787], `COc1cc(-c2nccnc2N[C@@H]2CCN(Cc3ccccc3)C2)cc(OC)c1OC` [CBK037651] is higher in viability at 28.5 h, 10 µM: 73.4% for the first, 96.7% for the second.

First: Cc1nc(C)n(CC2CCCN(Cc3nc4c(F)cccc4[nH]3)C2)n1 (stereo not shown) [CBK306218]
Second: CC(C)(C)C(=O)N1CCCC(c2cc3cccnc3[nH]2)C1 (stereo not shown) [CBK284945]
The viability at 28.5 h, 10 µM of the first is higher: 110% for the first, 102% for the second.

First: O=C(Nc1ccc(C(F)(F)F)cc1)N1CCC(n2c(=O)[nH]c3ccccc32)CC1 [CBK149847]
Second: CN1CCN(C(=O)c2[nH]c3ccccc3c2NS(=O)(=O)Cc2ccccc2[N+](=O)[O-])CC1 [CBK050059]
The viability at 28.5 h, 10 µM of the first is lower: 83.1% for the first, 92.6% for the second.

Going from `CC1CN(c2ccc(CNc3ncccc3C#N)cn2)CCO1` (stereo not shown) [CBK305957] to `CN1CCN(C(=O)c2ccc(-c3nccnc3NCCc3cccnc3)cc2)CC1` [CBK036838], the viability at 28.5 h, 10 µM falls from 99.5% to 97.2%.

Compared with `Cc1ccc(S(=O)(=O)Nc2cccc(NC(=O)c3ccco3)c2)cc1C(=O)O` [CBK296638], `CC(=O)Nc1cccc(-c2cc(N3CCN(C(=O)c4ccco4)CC3)ncn2)c1` [CBK036959] is lower in viability at 28.5 h, 10 µM: 105% for the first, 93.7% for the second.

Going from `O=C(C1CCCC1)N1CCC[C@@H]1Cn1c(=O)oc2ccccc21` [CBK284539] to `O=C(O)C[C@@H]1CCN(C(=O)C2CCCCC2)C[C@@H]1CCN1CCCCC1` [CBK288781], the viability at 28.5 h, 10 µM rises from 87.3% to 90.1%.

First: c1ccc2c(CCN3CCC(Oc4cncc(OCCN5CCOCC5)n4)C3)c[nH]c2c1 (stereo not shown) [CBK084500]
Second: Cc1cccc(C)c1NC(=O)C(=O)NCCCN1CCOCC1 [CBK264850]
The viability at 28.5 h, 10 µM of the first is higher: 100% for the first, 90.6% for the second.

Going from `Cc1cccc(CNCC2CCN(C(=O)OC(C)(C)C)CC2)n1` [CBK056713] to `Cc1nc(C(=O)NC2CCN(C)CC2)ccc1C(=O)O` [CBK304262], the viability at 28.5 h, 10 µM falls from 104% to 95.2%.

First: COC(=O)c1cccc(COC(=O)c2ccc3nc(C)c(C)nc3c2)c1 [CBK269641]
Second: COc1ccc(C(=O)Nc2cc(C)c3c(=O)oc4ccccc4c3n2)cc1 [CBK287435]
The viability at 28.5 h, 10 µM of the first is higher: 95.2% for the first, 79.6% for the second.

Going from `O=C(O)c1cc(S(=O)(=O)N2CCOCC2)ccc1F` [CBK268398] to `O=S(=O)(c1ccc(F)cc1)N1CCN(c2ncnc3scc(-c4ccccc4)c23)CC1` [CBK264864], the viability at 28.5 h, 10 µM falls from 106% to 103%.

Going from `COc1nccnc1-c1cnn(Cc2ccccc2)c1` [CBK107090] to `O=C(O)c1c2c(nc3ccccc13)CCN(Cc1ccccc1)C2` [CBK286805], the viability at 28.5 h, 10 µM falls from 101% to 87.4%.

Compared with `COc1ccc(Cl)cc1N1CCN(CCO)CC1` [CBK138339], `CCC(C)(C)c1ccc(S(=O)(=O)N2CCN(CCCC#N)CC2)cc1` [CBK063134] is higher in viability at 28.5 h, 10 µM: 88.7% for the first, 93.4% for the second.

Compared with `CC(c1cccc(F)c1)n1cc(C(=O)NCCc2ccco2)nn1` (stereo not shown) [CBK283582], `O=C(Cn1ncc2cccn2c1=O)NCc1ccc(F)cc1` [CBK283851] is lower in viability at 28.5 h, 10 µM: 102% for the first, 82.8% for the second.

First: CCc1cc(Br)ccc1S(=O)(=O)NCCc1cccs1 [CBK045033]
Second: COC(=O)CCCC(=O)n1ccn(CCc2cccs2)c1=O [CBK106612]
The viability at 28.5 h, 10 µM of the first is higher: 109% for the first, 92% for the second.

Compared with `CCc1nn(CC(=O)N2CCCC2)c(=O)c2cc3oc(C)cc3n12` [CBK283584], `CC(C)n1c(=O)n(CCN2CCCCC2)c2cccnc21` [CBK283932] is lower in viability at 28.5 h, 10 µM: 110% for the first, 95.4% for the second.

Going from `Cc1ccc(N(Cc2ccc(C(=O)N(C)Cc3ccccc3)cc2)S(C)(=O)=O)cc1C` [CBK263795] to `Cc1ccc(CN(c2ccc(C(=O)O)cc2)S(C)(=O)=O)cc1` [CBK287203], the viability at 28.5 h, 10 µM rises from 81.5% to 85%.

First: c1ccc(CN2CCC(NCc3ccco3)C(c3ccccc3)C2)cc1 (stereo not shown) [CBK286167]
Second: S=C(Nc1ccccc1)NC1C2CN3CCN(C2)CC1(c1ccccc1)C3 (stereo not shown) [CBK261936]
The viability at 28.5 h, 10 µM of the first is higher: 95.4% for the first, 88.6% for the second.

First: Cc1cccc(C(C)(C)C)c1OCCCCNCCN [CBK265092G]
Second: CC(C)(C)c1ccc2c(c1)C(CCCCN1CCCC1)(c1ccccc1)C(=O)O2 (stereo not shown) [CBK017654C]
The viability at 28.5 h, 10 µM of the first is higher: 110% for the first, 102% for the second.

First: CCN(Cc1cccs1)C(=O)NC1CCCc2c1cnn2CCO (stereo not shown) [CBK305768]
Second: CC(=O)Nc1cccc(NCc2csc(C3CCCC3)n2)c1 [CBK304874]
The viability at 28.5 h, 10 µM of the first is lower: 81.6% for the first, 110% for the second.

Compared with `Cc1cccc(OCc2nnc(SCC(=O)Nc3cccc4ccccc34)o2)c1C` [CBK267153], `O=C(CSc1nc2ccccc2c(=O)[nH]1)Nc1ccccc1O` [CBK269738] is lower in viability at 28.5 h, 10 µM: 108% for the first, 104% for the second.

First: CC1CCN(c2ccc(C(=O)CCCO)cc2)CC1 [CBK010358]
Second: C[C@H](NC(=O)C1CC(=O)N(c2ccc(F)cc2)C1)C(=O)N1CCC(C(=O)O)CC1 (stereo partly shown) [CBK286733]
The viability at 28.5 h, 10 µM of the first is higher: 91.8% for the first, 79.7% for the second.

Going from `O=C(O)/C=C/c1cccc(-c2cnc3[nH]c(=O)n(C4CC4)c3n2)c1` [CBK065091] to `O=c1[nH]nc(SCc2csc(COc3ccc(Cl)cc3)n2)n1C1CC1` [CBK295146], the viability at 28.5 h, 10 µM falls from 93.5% to 87.9%.

Going from `O=c1ccc2cccc(OCCO)c2o1` [CBK149730] to `Cc1ccc(CCC(=O)C(C#N)c2nc3ccccc3s2)o1` (stereo not shown) [CBK268944], the viability at 28.5 h, 10 µM rises from 105% to 112%.

Going from `CN1C(=S)SC(C)(N(O)C(=O)NC2CCCCC2)C1(C)C` (stereo not shown) [CBK008916] to `CCOc1ccc2[nH]c(C(=O)NC3CCCOC3)c(C)c2c1` (stereo not shown) [CBK282529], the viability at 28.5 h, 10 µM rises from 110% to 113%.

Going from `O=C(NCc1csc(-c2ccccc2)n1)c1ccccc1OC(F)F` [CBK092332] to `Cc1oc(-c2ccccc2)cc1C(=O)NCc1ccc(OC2CCNCC2)cc1` [CBK038915T], the viability at 28.5 h, 10 µM rises from 95% to 108%.

Compared with `CC(C)(O)C#Cc1ccc(C(=O)NC(CSCc2ccccc2)C(=O)O)s1` (stereo not shown) [CBK267705], `CC(NC(=O)N(CCCN)Cc1ccccc1C(F)(F)F)c1ccccc1` (stereo not shown) [CBK034668C] is higher in viability at 28.5 h, 10 µM: 98.4% for the first, 99.9% for the second.

First: COc1ccc(CCN(Cc2cccnc2)CC(O)COc2cccc3c2CCCC3)cc1 (stereo not shown) [CBK024545T]
Second: CCCCOc1ccc(C(=O)OC(Cc2cccc3ccccc23)CN(CC)CC)cc1 (stereo not shown) [CBK011965C]
The viability at 28.5 h, 10 µM of the first is higher: 92% for the first, 87.7% for the second.

Compared with `CC(=O)c1ccc(-c2nccnc2NCC2CC2)s1` [CBK037975], `O=C(NC1(c2ccc(F)cc2)CCCC1)c1cnccn1` [CBK283595] is lower in viability at 28.5 h, 10 µM: 104% for the first, 85.1% for the second.

Compared with `COc1ccc(C(=O)CSc2nnc3n(N)cnn23)cc1` [CBK263201], `Cc1ccc(OC(=O)c2cc(Cl)cnc2Cl)cc1` [CBK090321] is lower in viability at 28.5 h, 10 µM: 94.6% for the first, 84.5% for the second.

Going from `CN(C)CCNc1nccc2sc(S(=O)(=O)NCCC3=CCCCC3)cc12` [CBK038244C] to `O=C(NCCSCc1ccco1)C1CCC1` [CBK057516], the viability at 28.5 h, 10 µM rises from 108% to 119%.

Compared with `O=C(O)c1cccc(NC(=S)NC(=O)C(c2ccccc2)c2ccccc2)c1` [CBK265053], `CC(=O)c1ccc(NC(=O)c2cccc(Cl)c2)cc1` [CBK033939] is lower in viability at 28.5 h, 10 µM: 107% for the first, 89.3% for the second.

Compared with `CCN(CC)CCNC(=O)c1ccc(/C=N/O)nc1` [CBK288375], `Nc1nonc1C(=O)NCc1cccnc1` [CBK025695] is lower in viability at 28.5 h, 10 µM: 100% for the first, 95.9% for the second.

Compared with `COc1cc(/C=N/c2cccc3c(/N=C/c4ccc(O)c(OC)c4)cccc23)ccc1O` [CBK261224], `O=C(c1ccco1)N1CCC2(CC1)Nc1cccnc1-n1cccc12` [CBK284506] is lower in viability at 28.5 h, 10 µM: 85.8% for the first, 85.3% for the second.

Going from `Cn1c(=O)c2c(nc(SCC(=O)CSc3nc4c(c(=O)n(C)c(=O)n4C)n3C)n2C)n(C)c1=O` [CBK267692] to `CC(C)CCC1(CN2CCCC2=O)C(=O)NC(=O)NC1=O` [CBK288372], the viability at 28.5 h, 10 µM rises from 86.9% to 90.5%.

Compared with `N#Cc1c(-c2ccc(Cl)cc2)c[nH]c1N` [CBK019323], `O=C(O)Cc1cnnn1-c1ccc(Cl)cc1Cl` [CBK288035] is lower in viability at 28.5 h, 10 µM: 104% for the first, 86% for the second.

First: O=C(Cn1cccnc1=O)NCc1cccnc1OCC(F)(F)F [CBK305949]
Second: CCCCC(O)C[N+]1(C)CCC(c2ccccc2)CC1 (stereo not shown) [CBK006696I]
The viability at 28.5 h, 10 µM of the first is higher: 109% for the first, 101% for the second.

Same assay, conditions: human, hela cells, % viability, bulk resorufin, single well

Compared with `C1=C(c2ccccc2)CCNC1` [CBK012268C], `CS(=O)(=O)c1cccc(-c2ccc3c(c2)COC2(CCNCC2)O3)c1` [CBK060990] is lower in viability at 28.5 h, 10 µM: 104% for the first, 94.4% for the second.

For `O=C1NC(=O)N(c2ccc(Br)cc2)C(=O)/C1=C/c1ccc(O)c(O)c1` [CBK278167], the viability at 28.5 h, 10 µM was 104%.
